Results published in article doi:10.1101/2025.01.28.635346v1 (bioRxiv, 2025).
Read-outs that look alike come from different tables or passages of the source. Bridge positions count the residues as written; N and C are the ends. Side chains are listed from the residue outwards. Peptide text beside a SMILES is read from it. * marks the point of attachment. Butanoyl(4-(4-I-phenyl)) = O=C(CCCc1ccc(I)cc1)*; PEG2 = NCCOCCOCCC(=O)O

Legend:
[1] = Hepatocyte stability, cryopreserved mouse hepatocytes; type: in vitro ADME
INSR = INSR (Homo sapiens, UniProt P06213); assay: Safetyscan47 Kinases Binding, Inhibitor; settings: for Emax: read-out: Max Response
SERT = SERT (Homo sapiens, UniProt P31645); assay: Safetyscan47 Transporter, Blocker; type: cell-based; settings: for Emax: read-out: Max Response
ADRB1 = ADRB1 (Homo sapiens, UniProt P08588); assay: Safetyscan47 GPCR cAMP, Antagonist; type: cell-based; settings: for Emax: read-out: Max Response
VEGFR2 = VEGFR2 (Homo sapiens, UniProt P35968); assay: Safetyscan47 Kinases Binding, Inhibitor; settings: for Emax: read-out: Max Response
[2] = Plasma protein binding, rapid equilibrium dialysis, human plasma; type: in vitro ADME; settings: for fraction unbound at 4 h, 2 μM: human, plasma, pH 7.4
HTR2A = HTR2A (Homo sapiens, UniProt P28223); assay: Safetyscan47 GPCR Calcium Flux, Agonist; type: cell-based; settings: for Emax: read-out: Max Response
OPRM1 = OPRM1 (Homo sapiens, UniProt P35372); assay: Safetyscan47 GPCR cAMP, Agonist; type: cell-based; settings: for Emax: OPRM1, read-out: Max Response
integrin α5β1 = integrin α5β1 (Homo sapiens, UniProt P05556+P08648); assay: ELISA competition assay, integrin α5β1; type: binding
GR = molecular target: T1, GR (Homo sapiens, UniProt P04150); assay: Safetyscan47 NHR Protein Interaction, Antagonist; type: cell-based; settings: for Emax: read-out: Max Response
T1 sequence (P04150 1-777): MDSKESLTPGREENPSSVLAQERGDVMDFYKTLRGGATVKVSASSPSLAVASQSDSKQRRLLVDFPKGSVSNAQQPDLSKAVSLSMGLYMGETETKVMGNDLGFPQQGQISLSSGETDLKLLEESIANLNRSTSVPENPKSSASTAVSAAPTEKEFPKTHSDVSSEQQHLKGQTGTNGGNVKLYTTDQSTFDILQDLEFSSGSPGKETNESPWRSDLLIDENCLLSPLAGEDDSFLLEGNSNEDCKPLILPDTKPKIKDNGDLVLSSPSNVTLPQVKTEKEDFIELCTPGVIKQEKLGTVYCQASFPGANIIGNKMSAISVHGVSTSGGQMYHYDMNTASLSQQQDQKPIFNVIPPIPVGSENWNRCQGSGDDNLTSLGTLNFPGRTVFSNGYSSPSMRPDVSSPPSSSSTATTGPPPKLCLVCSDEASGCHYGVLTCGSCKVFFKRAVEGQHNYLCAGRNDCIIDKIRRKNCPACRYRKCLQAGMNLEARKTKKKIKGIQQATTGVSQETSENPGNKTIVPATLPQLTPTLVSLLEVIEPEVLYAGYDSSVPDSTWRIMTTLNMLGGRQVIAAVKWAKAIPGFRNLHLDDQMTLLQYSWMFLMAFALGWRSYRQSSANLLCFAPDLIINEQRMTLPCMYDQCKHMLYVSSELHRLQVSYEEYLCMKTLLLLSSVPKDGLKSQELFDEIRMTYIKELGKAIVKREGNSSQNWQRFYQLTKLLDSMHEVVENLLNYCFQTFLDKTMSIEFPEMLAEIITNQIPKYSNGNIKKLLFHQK

nAChR(a4/b2) = nAChR(a4/b2) (Homo sapiens, UniProt P17787+P43681); assay: Safetyscan47 Ion Channel, Opener; type: cell-based; settings: for Emax: read-out: Max Response
hERG = hERG (Homo sapiens, UniProt Q12809); assay: Safetyscan47 Ion Channel, Blocker; type: cell-based
integrin αvβ3 = integrin αvβ3 (Homo sapiens, UniProt P05106+P06756); assay: ELISA competition assay, integrin αvβ3; type: binding
[3] = Hepatocyte stability, cryopreserved human hepatocytes; type: in vitro ADME
ADORA2A = ADORA2A (Homo sapiens, UniProt P29274); assay: Safetyscan47 GPCR Calcium Flux, Antagonist; type: cell-based; settings: for Emax: read-out: Max Response
ADRA2A = molecular target: T2, ADRA2A (Homo sapiens, UniProt P08913); assay: Safetyscan47 GPCR cAMP, Agonist; type: cell-based; settings: for Emax: read-out: Max Response
T2 sequence (P08913 1-465): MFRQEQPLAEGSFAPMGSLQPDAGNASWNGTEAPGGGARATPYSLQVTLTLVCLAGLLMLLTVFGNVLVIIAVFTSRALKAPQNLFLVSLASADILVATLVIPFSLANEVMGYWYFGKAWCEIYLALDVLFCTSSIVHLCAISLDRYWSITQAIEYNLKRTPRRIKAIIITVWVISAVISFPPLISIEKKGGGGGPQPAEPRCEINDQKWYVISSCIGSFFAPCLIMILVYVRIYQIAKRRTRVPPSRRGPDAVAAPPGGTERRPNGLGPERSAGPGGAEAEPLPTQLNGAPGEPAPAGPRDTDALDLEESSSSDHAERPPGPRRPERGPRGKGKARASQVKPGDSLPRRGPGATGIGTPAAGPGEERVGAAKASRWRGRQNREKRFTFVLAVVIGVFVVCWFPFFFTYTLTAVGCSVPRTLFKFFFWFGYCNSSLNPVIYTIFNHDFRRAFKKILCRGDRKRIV

DRD1 = DRD1 (Homo sapiens, UniProt P21728); assay: Safetyscan47 GPCR cAMP, Antagonist; type: cell-based; settings: for Emax: read-out: Max Response
integrin α8β1 = integrin α8β1 (Homo sapiens, UniProt P05556+P53708); assay: ELISA competition assay, integrin α8β1; type: binding

Row | Compound | half-life at 2 μM [1] [h] | remaining at 1 h, 2 μM [1] [%] | remaining at 3 h, 2 μM [1] [%] | IC50 (INSR) [µM] | Emax (INSR) [%] | IC50 (SERT) [µM] | Emax (SERT) [%] | IC50 (ADRB1) [µM] | Emax (ADRB1) [%] | IC50 (VEGFR2) [µM] | Emax (VEGFR2) [%] | fraction unbound at 4 h, 2 μM [2] | EC50 (HTR2A) [µM] | Emax (HTR2A) [%] | EC50 (OPRM1) [µM] | Emax (OPRM1) [%] | IC50 (integrin α5β1) [µM] | IC50 (GR) [µM] | Emax (GR) [%] | EC50 (nAChR(a4/b2)) [µM] | also measured
1 | CC[C@H](C)[C@H](NC(=O)[C@H](CC(C)C)NC(=O)[C@H](CC(=O)O)NC(=O)CNC(=O)[C@H](CCCNC(=N)N)NC(=O)[C@@H](NC(=O)[C@H](Cc1ccccc1)NC(=O)[C@H](Cc1ccc(O)cc1)NC(=O)[C@@H]1CCC(=O)NCC(=O)NCC(=O)N[C@@H](CCCNC(=N)N)C(=O)NCC(=O)N[C@@H](Cc2c[nH]cn2)C(=O)N[C@@H](C(C)C)C(=O)N2CCC[C@H]2C(=O)N1)C(C)C)C(=O)N[C@@H](CO)C(=O)N[C@@H](Cc1ccccc1)C(=O)N[C@@H](Cc1ccc(O)cc1)C(=O)N[C@@H](CCCCN)C(=O)O [lassotide 36] (GGRGHVPEYFVRGDLISFYK-OH; lactam N-8) | 3.57 | 98.7 | 56.9 | > 45 | 17.4 | > 45 | 17.5 | > 45 | 15.6 | > 45 | 6.3 | 0.126 | > 45 | 1.7 | > 45 | 3.7 | 2.35 | > 45 | 0 | > 45 | Emax (nAChR(a4/b2)): 11%; IC50 (hERG): > 45 µM; Emax (hERG; human): 5.06%; IC50 (integrin αvβ3): 0.343 µM; half-life at 2 μM [3]: 4.1 h; remaining at 1 h, 2 μM [3]: 87.9%; remaining at 3 h, 2 μM [3]: 57.8%; IC50 (ADORA2A): > 45 µM; Emax (ADORA2A): 0%; EC50 (ADRA2A): > 45 µM; Emax (ADRA2A): 0.3%; IC50 (DRD1): > 45 µM; Emax (DRD1): 11.1%; IC50 (integrin α8β1): 3.89 µM
2 | CC[C@H](C)[C@H](NC(=O)[C@H](CC(C)C)NC(=O)[C@H](CC(=O)O)NC(=O)CNC(=O)[C@H](CCCNC(=N)N)NC(=O)[C@@H](NC(=O)[C@H](Cc1ccccc1)NC(=O)[C@H](Cc1ccc(O)cc1)NC(=O)[C@@H]1CCC(=O)NCC(=O)NCC(=O)N[C@@H](CCCNC(=N)N)C(=O)NCC(=O)N[C@@H](Cc2c[nH]cn2)C(=O)N[C@@H](C(C)C)C(=O)N2CCC[C@H]2C(=O)N1)C(C)C)C(=O)N[C@@H](CO)C(=O)N[C@@H](Cc1ccccc1)C(=O)N[C@@H](Cc1ccc(O)cc1)C(=O)N[C@@H](CCCCNC(=O)CCOCCOCCNC(=O)CCCc1ccc(I)cc1)C(=O)O [lassotide 47] (GGRGHVPEYFVRGDLISFYK([PEG2-Butanoyl(4-(4-I-phenyl))])-OH; lactam N-8) | 2.69 | 87.8 | 46.5 | > 45 | 11.2 | > 45 | 22.5 | > 45 | 40 | > 45 | 2.92 | 0.006 | > 45 | 3.54 | > 45 | 18.4 | 5.02 | > 45 | 0 | > 45 | Plasma protein binding, %Recovery ([2]; human plasma, RED, 2 μM, 4 h, 37°C): 101%; Emax (nAChR(a4/b2)): 0%; Emax (hERG; human): 1.41%; IC50 (hERG; human): > 45 µM; IC50 (integrin αvβ3): 1 µM; remaining at 1 h, 2 μM [3]: 85.3%; remaining at 3 h, 2 μM [3]: 84.8%; IC50 (ADORA2A): > 45 µM; Emax (ADORA2A): 7.44%; EC50 (ADRA2A): > 45 µM; Emax (ADRA2A): 30.2%; IC50 (DRD1): > 45 µM; Emax (DRD1): 35.1%; IC50 (integrin α8β1): > 10 µM
